Measured values taken from US4156724A, “N-acylamino-alpha-arylacetamido cephalosporins and antibacterial compositions and methods containing them” (Sumitomo Chemical Company, Limited, priority 1974, dated 1979).
Values after ≈ are worked out from the molar mass of the structure shown.

Legend:
Format in all cases: cell-based
[1] = test system: Enterobacter aerogeneus No. 75; assay: Minimum Inhibitory Concentration, Enterobacter aerogeneus No. 75; conditions: Enterobacter aerogeneus No. 75; for MIC: read-out: Minimum Inhibitory Concentration
Experimental: (§1) anti-microbial activity tests were carried out on the compounds obtained in the Examples.

Escherichia coli NIHJ = assay: Minimum Inhibitory Concentration, Escherichia coli NIHJ; conditions: Escherichia coli NIHJ; for MIC: read-out: Minimum Inhibitory Concentration
Experimental: as §1

[2] = test system: Staphylococcus aureus 209 P; assay: Minimum Inhibitory Concentration, Staphylococcus aureus 209 P; conditions: Staphylococcus aureus 209 P; for MIC: read-out: Minimum Inhibitory Concentration
Experimental: as §1

[3] = test system: Klebsiella pneumoniae 602; assay: Minimum Inhibitory Concentration, Klebsiella pneumoniae 602; conditions: for MIC: Klebsiella pneumoniae, 602, Klebsiella pneumoniae 602, read-out: Minimum Inhibitory Concentration
Experimental: as §1

[4] = test system: Staphylococcus aureus FS 289; assay: Minimum Inhibitory Concentration, Staphylococcus aureus FS 289; conditions: Staphylococcus aureus FS 289, strain resistant to penicillin; for MIC: FS289, read-out: Minimum Inhibitory Concentration
Experimental: as §1
*Staphylococcus aureus FS 289: strain resistant to penicillin

[5] = test system: Pseudomonas aeruginosa 104; assay: Minimum Inhibitory Concentration, Pseudomonas aeruginosa 104; conditions: Pseudomonas aeruginosa 104; for MIC: read-out: Minimum Inhibitory Concentration
Experimental: as §1

Serratia No. 72 = assay: Minimum Inhibitory Concentration, Serratia No. 72
Experimental: as §1

Proteus vulgaris HX 19 = assay: Minimum Inhibitory Concentration, Proteus vulgaris HX 19; conditions: Proteus vulgaris HX 19; for MIC: HX19, read-out: Minimum Inhibitory Concentration
Experimental: as §1

Row | Compound | MIC [1] [µg/mL] | MIC (Escherichia coli NIHJ) [µg/mL] | MIC [2] [µg/mL] | MIC [3] [µg/mL] | MIC [4] [µg/mL] | MIC [5] [µg/mL] | MIC (Serratia No. 72) [µg/mL] | MIC (Proteus vulgaris HX 19) [µg/mL] | Minimum Inhibitory Concentration [1] [µg/mL] | Minimum Inhibitory Concentration (Escherichia coli NIHJ) [µg/mL] | Minimum Inhibitory Concentration [2] [µg/mL] | Minimum Inhibitory Concentration ([3]; Klebsiella pneumoniae 602) [µg/mL] | Minimum Inhibitory Concentration [4] [µg/mL] | Minimum Inhibitory Concentration [5] [µg/mL] | Minimum Inhibitory Concentration (Serratia No. 72) [µg/mL] | Minimum Inhibitory Concentration (Proteus vulgaris HX 19) [µg/mL]
1 | Cc1nnc(SCC2=C(C(=O)O)N3C(=O)C(NC(=O)C(NC(=O)c4cnccc4O)c4ccc(N)cc4)C3SC2)s1 (centres unmarked) [Example 56] | 12.5 (≈ 20.4 µM) | 6.25 (≈ 10.2 µM) | 0.39 (≈ 0.635 µM) | 6.25 (≈ 10.2 µM) | 6.25 (≈ 10.2 µM) | 6.25 (≈ 10.2 µM) | 50 (≈ 81.5 µM) | 0.1 (≈ 0.163 µM) |  |  |  |  |  |  |  | 
2 | CC(=O)OCC1=C(C(=O)O)N2C(=O)C(NC(=O)C(NC(=O)c3cnccc3O)c3ccc(CO)cc3)C2SC1 (racemic) [Example 88, 7-[DL-α-(4-Hydroxypyridine-3-carbonamido)-α-p-hydroxymethylphenylacetamido]cephalosporanic Acid] | 25 (≈ 44.9 µM) | 25 (≈ 44.9 µM) | 0.78 (≈ 1.4 µM) | 25 (≈ 44.9 µM) | 6.25 (≈ 11.2 µM) | 12.5 (≈ 22.5 µM) | > 200 | 0.39 (≈ 0.701 µM) |  |  |  |  |  |  |  | 
3 | CC(=O)OCC1=C(C(=O)[O-])N2C(=O)C(NC(=O)C(NC(=O)c3cnc4ncncc4c3O)c3ccc(O)cc3)C2SC1.[Na+] (centres unmarked) [Example 139] |  |  |  |  |  |  |  |  | 50 | 12.5 | 1.56 | 6.25 | 12.5 | 12.5 | 50 | 3.13
4 | Nc1cccc(C(NC(=O)c2cnc3cccnc3c2O)C(=O)NC2C(=O)N3C(C(=O)O)=C(CSc4n[nH]c(=O)s4)CSC23)c1 (centres unmarked) [Example 80] | 3.13 (≈ 4.69 µM) | 3.13 (≈ 4.69 µM) | 0.78 (≈ 1.17 µM) | 3.13 (≈ 4.69 µM) | 6.25 (≈ 9.37 µM) | 3.13 (≈ 4.69 µM) | 12.5 (≈ 18.7 µM) | 0.2 (≈ 0.3 µM) |  |  |  |  |  |  |  | 
5 | O=C(O)C1=C(CSc2cnn[nH]2)CSC2C(NC(=O)C(NC(=O)c3cnc4cccnc4c3O)c3cccc(O)c3)C(=O)N12 (centres unmarked) [Example 169] | 3.13 (≈ 4.93 µM) | 3.13 (≈ 4.93 µM) | 0.78 (≈ 1.23 µM) | 1.56 (≈ 2.46 µM) | 6.25 (≈ 9.85 µM) | 3.13 (≈ 4.93 µM) | 25 (≈ 39.4 µM) | 0.1 (≈ 0.158 µM) |  |  |  |  |  |  |  | 
6 | CC(=O)OCC1=C(C(=O)O)N2C(=O)[C@@H](NC(=O)[C@H](NC(=O)c3cnc4cccnc4c3O)c3ccc(NC(N)=O)cc3)[C@H]2SC1 [Example 7] | 6.25 (≈ 9.83 µM) | 3.13 (≈ 4.92 µM) | 0.78 (≈ 1.23 µM) | 3.13 (≈ 4.92 µM) | 6.25 (≈ 9.83 µM) | 6.25 (≈ 9.83 µM) | 50 (≈ 78.7 µM) | 0.78 (≈ 1.23 µM) |  |  |  |  |  |  |  | 
7 | Cn1nnnc1SCC1=C(C(=O)O)N2C(=O)C(NC(=O)[C@H](NC(=O)c3cnc4cccnc4c3O)c3ccc(O)cc3)C2SC1 (some centres unmarked) [Example 131] | 3.13 (≈ 4.82 µM) | 1.56 (≈ 2.4 µM) | 0.78 (≈ 1.2 µM) | 0.78 (≈ 1.2 µM) | 3.13 (≈ 4.82 µM) | 3.13 (≈ 4.82 µM) | 12.5 (≈ 19.2 µM) | 0.1 (≈ 0.154 µM) |  |  |  |  |  |  |  | 
8 | Cc1nnc(SCC2=C(C(=O)O)N3C(=O)C(NC(=O)C(NC(=O)c4cnccc4O)c4ccc(O)c(O)c4)C3SC2)s1 (centres unmarked) [Example 183] | 12.5 (≈ 19.8 µM) | 6.25 (≈ 9.91 µM) | 0.78 (≈ 1.24 µM) | 12.5 (≈ 19.8 µM) | 6.25 (≈ 9.91 µM) | 6.25 (≈ 9.91 µM) | 50 (≈ 79.3 µM) | 0.39 (≈ 0.618 µM) |  |  |  |  |  |  |  | 
9 | CC(=O)OCC1=C(C(=O)O)N2C(=O)[C@@H](NC(=O)[C@H](NC(=O)c3cnc4cncnc4c3O)c3cccc(NC(N)=O)c3)[C@H]2SC1 [Example 32] | 12.5 (≈ 19.6 µM) | 3.13 (≈ 4.92 µM) | 0.78 (≈ 1.23 µM) | 3.13 (≈ 4.92 µM) | 6.25 (≈ 9.82 µM) | 6.25 (≈ 9.82 µM) | 50 (≈ 78.5 µM) | 0.39 (≈ 0.613 µM) |  |  |  |  |  |  |  | 
10 | CC(=O)OCC1=C(C(=O)O)N2C(=O)C(NC(=O)C(NC(=O)c3cnc4nc(C)ccc4c3O)c3ccc(CO)cc3)C2SC1 (centres unmarked) [Example 99] | 12.5 (≈ 20.1 µM) | 6.25 (≈ 10.1 µM) | 1.56 (≈ 2.51 µM) | 6.25 (≈ 10.1 µM) | 6.25 (≈ 10.1 µM) | 12.5 (≈ 20.1 µM) | 50 (≈ 80.4 µM) | 0.78 (≈ 1.25 µM) |  |  |  |  |  |  |  | 
11 | Cc1nnc(SCC2=C(C(=O)O)N3C(=O)C(NC(=O)C(NC(=O)c4cnc5nc(N(C)C)ncc5c4O)c4ccc(O)c(O)c4)C3SC2)s1 (centres unmarked) [Example 156] | 12.5 (≈ 17.2 µM) | 6.25 (≈ 8.61 µM) | 1.56 (≈ 2.15 µM) | 6.25 (≈ 8.61 µM) | 12.5 (≈ 17.2 µM) | 6.25 (≈ 8.61 µM) | 50 (≈ 68.9 µM) | 0.78 (≈ 1.07 µM) |  |  |  |  |  |  |  | 
12 | Cn1nnnc1SCC1=C(C(=O)O)N2C(=O)C(NC(=O)C(NC(=O)c3cnc4scnc4c3O)c3cccc(NC(N)=O)c3)C2SC1 (centres unmarked) [Example 44] | 6.25 (≈ 8.96 µM) | 6.25 (≈ 8.96 µM) | 0.78 (≈ 1.12 µM) | 3.13 (≈ 4.49 µM) | 6.25 (≈ 8.96 µM) | 6.25 (≈ 8.96 µM) | 12.5 (≈ 17.9 µM) | 0.39 (≈ 0.559 µM) |  |  |  |  |  |  |  | 
13 | Cn1nnnc1SCC1=C(C(=O)O)N2C(=O)C(NC(=O)[C@H](NC(=O)c3cnc4nc(N5CCCC5)cnc4c3O)c3ccc(O)cc3)C2SC1 (some centres unmarked) [Example 147] | 6.25 (≈ 8.68 µM) | 3.13 (≈ 4.35 µM) | 1.56 (≈ 2.17 µM) | 3.13 (≈ 4.35 µM) | 12.5 (≈ 17.4 µM) | 3.13 (≈ 4.35 µM) | 25 (≈ 34.7 µM) | 1.56 (≈ 2.17 µM) |  |  |  |  |  |  |  | 
